Laboratory results taken from PMC11054271, “ABCG2 Transports the Flukicide Nitroxynil and Affects Its Biodistribution and Secretion into Milk” (Pharmaceutics, 2024).

Experiments:
murine Abcg2 [1] = biological target: T1, murine Abcg2 (Mus musculus, UniProt Q7TMS5); test: Transepithelial transport assay in MDCK-II cells transduced with murine Abcg2; type: in vitro ADME; set-up: expressed in transfected cells; host or cells: MDCK-II (canine kidney) subclone, provided by A. H. Schinkel (Netherlands Cancer Institute); details: MDCK-II mAbcg2, nitroxynil 10 µM, no Ko143, read-out: Relative efflux transport ratio (BA/AB)
T1 sequence (Q7TMS5 1-657): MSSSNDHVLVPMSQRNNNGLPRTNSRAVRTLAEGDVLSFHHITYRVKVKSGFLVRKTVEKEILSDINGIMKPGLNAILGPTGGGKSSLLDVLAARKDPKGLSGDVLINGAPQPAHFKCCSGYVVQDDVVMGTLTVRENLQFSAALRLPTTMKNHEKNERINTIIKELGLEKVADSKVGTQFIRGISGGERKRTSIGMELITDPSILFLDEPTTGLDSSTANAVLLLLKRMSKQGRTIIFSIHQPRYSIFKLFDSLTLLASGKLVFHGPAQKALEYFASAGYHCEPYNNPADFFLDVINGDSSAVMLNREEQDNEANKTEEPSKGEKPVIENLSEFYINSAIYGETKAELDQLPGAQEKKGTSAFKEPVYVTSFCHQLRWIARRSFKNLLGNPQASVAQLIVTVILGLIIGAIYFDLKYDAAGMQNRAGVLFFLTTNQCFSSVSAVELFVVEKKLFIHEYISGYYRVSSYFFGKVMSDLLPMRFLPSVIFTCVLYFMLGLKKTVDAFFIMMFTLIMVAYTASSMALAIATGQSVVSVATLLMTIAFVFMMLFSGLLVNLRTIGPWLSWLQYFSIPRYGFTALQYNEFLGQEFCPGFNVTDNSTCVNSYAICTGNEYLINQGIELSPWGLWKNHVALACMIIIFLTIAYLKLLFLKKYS
Protocol: Parental Madin–Darby canine kidney epithelial cells (MDCK–II) and their subclones transduced with murine (mAbcg2) and human (hABCG2) variants of ABCG2 were kindly provided by Dr. A. H. Schinkel (Netherlands Cancer Institute). Transduced MDCK–II cells with the ovine (oABCG2) and bovine (bABCG2) variants were previously generated by our group. Cells were cultured as described elsewhere.
Transepithelial transport assays were carried out as previously described with minor variations, using Hanks’ balanced salt solution (Sigma-Aldrich) supplemented with HEPES (25 mM), with or without Ko143 (1 μM), and containing or not nitroxynil 10 μM. […] At the end of the experiment, confluence of the monolayer was measured with the previously described Lucifer Yellow permeability test, with minor modifications. The appearance of nitroxynil in the opposite side of the well was measured by HPLC as later described. Active transport was expressed as relative efflux transport ratio (apically directed transport percentage divided by the basolaterally directed translocation percentage) at 4 h and referred to the initial concentration. […]
(§1) Waters 2695 separation module and Waters 2998 UV photodiode array detector set at 270 nm were used for samples analysis. […] Limit of detection (LOD) and quantification (LOQ) were calculated as previously described. […]

murine Abcg2 [2] = biological target: T1, murine Abcg2; test: Milk secretion experiment in lactating wild-type and Abcg2−/− female mice; type: in vivo; set-up: from tissue; host or cells: whole animal: wild-type vs Abcg2-/- mice, >99% FVB/N background; details: lactating female mice, 30 min after 10 mg/kg i.v.
Protocol: All in vivo experiments were carried out using wild-type and Abcg2^−/− mice aged between 8 and 17 weeks, all of >99% FVB/N genetic background, generated and gently supplied by A. H. Schinkel (Netherlands Cancer Institute). Mice were housed and handled complying with institutional and ARRIVE guidelines and European legislation (EU Directive 2010/63/EU for animal experiments). Additionally, experimental procedures were approved by the Animal Care and Use Committee of the University of León and the Junta de Castilla y León (ULE_011_2019).
Pups of approximately 10 days old were separated from their mothers (wild-type (n = 10) and Abcg2^−/− (n = 11) female mice) 3 h before beginning the experiment. Milk secretion experiments were performed as previously described. Nitroxynil solution was prepared by diluting Distomicide® (250 mg/mL) commercial solution in saline and administered at a dose of 150 μL/30 g bw into the tail vein under anesthesia with isoflurane. […]
Plasma, milk and tissue samples from each animal were individually processed and analyzed without pooling, while samples from transport assays were not processed. […]
as §1

N#Cc1cc(I)c(O)c([N+](=O)[O-])c1 [nitroxynil]
efflux ratio at 4 h, 10 µM (murine Abcg2 [1]): 32.3 ± 7.59
Milk concentration, fold higher in wild-type compared with Abcg2−/− (murine Abcg2 [2]): 1.9 fold
Milk-to-plasma ratio, fold higher in wild-type compared with Abcg2−/− (murine Abcg2 [2]): 2.1 fold
